Source: PubChem BioAssay (NCI)
Where “and” joins values, the source holds several entries; their conditions need not be identical. Equal values may be shown once.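 96-well plates; 48 h exposure; 5 concentrations. Endpoints by linear interpolation between flanking doses. Not reached: highest tested concentration assigned. GI50 marks 50% less growth. At the TGI there is no net growth.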

Experiments:
Experiment in all cases: NCI-60 cell line screen, 48 h
HCC-2998 colon = system: HCC-2998 colon
HOP-62 NSCLC = system: HOP-62 NSCLC
K-562 leukemia = system: K-562 leukemia
OVCAR-8 ovarian = system: OVCAR-8 ovarian
RPMI-8226 leukemia = system: RPMI-8226 leukemia
SK-MEL-2 melanoma = system: SK-MEL-2 melanoma
SNB-75 CNS = system: SNB-75 CNS
TK-10 renal = system: TK-10 renal
LOX IMVI melanoma = system: LOX IMVI melanoma
HS 578T breast = system: HS 578T breast

| Compound | TGI (HCC-2998 colon) | TGI (HOP-62 NSCLC) | TGI (K-562 leukemia) | TGI (OVCAR-8 ovarian) | TGI (RPMI-8226 leukemia) | TGI (SK-MEL-2 melanoma) | TGI (SNB-75 CNS) | TGI (TK-10 renal) | TGI (LOX IMVI melanoma) | GI50 (HCC-2998 colon) | GI50 (HOP-62 NSCLC) | GI50 (K-562 leukemia) | GI50 (LOX IMVI melanoma) | GI50 (OVCAR-8 ovarian) | GI50 (SK-MEL-2 melanoma) | GI50 (SNB-75 CNS) | GI50 (TK-10 renal) | GI50 (RPMI-8226 leukemia) | GI50 (HS 578T breast) | TGI (HS 578T breast) |
| --- | --- | --- | --- | --- | --- | --- | --- | --- | --- | --- | --- | --- | --- | --- | --- | --- | --- | --- | --- | --- |
| COC(=O)[C@@]12C=CC(=O)[C@H]3C[C@@H](C(C(C)C)C1)[C@]32OC (stereo not given in full) | > 100 µM | > 100 µM | > 100 µM | > 100 µM | > 100 µM | > 100 µM | > 100 µM | > 100 µM |  |  |  |  |  |  |  |  |  |  |  |  |
| O=C(C=Nc1ccccc1C(=O)[O-])c1cccs1.O=C(C=Nc1ccccc1C(=O)[O-])c1cccs1.[Zn+2] | > 10 µM | > 100 µM | 88 µM | > 100 µM |  | 52.1 µM | 35.3 µM | > 100 µM | 71.5 µM |  |  |  |  |  |  |  |  |  |  |  |
| CCCCCCCCCCCCCCCCCC[N+](C)(C)Cc1ccc(C[N+](C)(C)CCCCCCCCCCCCCCCCCC)cc1 | 93.7 µM | 34.7 µM | > 100 µM | 30.5 µM | 48.7 µM | > 100 µM | 26 µM | 28.6 µM | 32.3 µM |  |  |  |  |  |  |  |  |  |  |  |
| CCOC(=O)NC1CC2CCC1(OC)C=C2C (stereo not given) | > 100 µM | > 100 µM | > 100 µM | > 100 µM | > 100 µM | > 100 µM | > 100 µM | > 100 µM | > 100 µM |  |  |  |  |  |  |  |  |  |  |  |
| COC(=O)Cc1cc(=O)n2c([nH]c3ccccc32)c1C#N | > 100 µM | > 100 µM | > 100 µM | > 100 µM | > 100 µM | > 100 µM | > 100 µM | > 100 µM | > 100 µM |  |  |  |  |  |  |  |  |  |  |  |
| C[CH2][Sn]([CH2]C)([O]C(=O)c1ccc(F)cc1)[O][Sn]([CH2]C)([CH2]C)[O]C(=O)c1ccc(F)cc1 | > 100 µM | > 100 µM | 78.6 µM | > 100 µM |  | 83.3 µM | > 100 µM | 62.3 µM | > 100 µM | > 100 µM | > 100 µM | 20.1 µM | 37.4 µM | > 100 µM | 28.5 µM | 58.5 µM | 23.5 µM |  |  |  |
| C/C=C/C1=CN2C(=O)c3cc(OC4OC(C)C(NC)C(C)(O)C4O)c(C)c(O)c3N=C[C@@H]2C1 (stereo not given in full) |  |  | > 100 µM | > 100 µM |  |  |  |  | 4.06 µM |  |  | 0.0431 µM and < 0.01 µM | 0.0619 µM and < 0.01 µM |  |  |  | 0.326 µM | 0.0457 µM and < 0.01 µM |  |  |
| Cc1ccccc1NC(=O)c1ccc([N+](=O)[O-])cc1 | > 100 µM | > 100 µM | > 100 µM | > 100 µM | > 100 µM |  | > 100 µM | > 100 µM | > 100 µM |  |  |  |  |  |  |  |  |  |  |  |
| CC1=Nc2ccccc2C12C(c1ccccc1)C(c1ccccc1)C(=O)N1c3ccccc3CC12 (stereo not given) | > 100 µM | > 100 µM | > 100 µM | > 100 µM | > 100 µM | > 100 µM | > 100 µM | > 100 µM | > 100 µM |  |  |  |  |  |  |  |  |  |  |  |
| FC(F)(F)c1nc(-c2ccccc2)oc1Sc1oc(-c2ccccc2)nc1C(F)(F)F | > 100 µM | > 100 µM | > 100 µM | > 100 µM | > 100 µM | > 100 µM | > 100 µM | > 100 µM | > 100 µM |  |  |  |  |  |  |  |  |  |  |  |
| CC(=O)[O][Bi]([c]1ccccc1)[c]1ccccc1 |  | 33.8 µM | 14.5 µM | 31 µM | 5.99 µM |  | 30.2 µM | 6.38 µM | 5.24 µM |  | 17 µM | 2.75 µM | 1.98 µM | 16.4 µM |  | 16.4 µM | 1.85 µM | 2.59 µM | 24.9 µM | 71.9 µM |
| CC[CH2][Sn]([CH2]CC)([O]C(=O)Cc1ccc(F)cc1)[O][Sn]([CH2]CC)([CH2]CC)[O]C(=O)Cc1ccc(F)cc1 | 1.7 µM | 2.69 µM | 1.81 µM | 1.41 µM |  | 0.393 µM | 1.43 µM | 0.393 µM | 0.232 µM | 0.439 µM | 1.25 µM | 0.0266 µM | 0.0851 µM | 0.278 µM | 0.115 µM | 0.27 µM | 0.125 µM | 0.0382 µM |  |  |
| CCOC(=O)c1cc(OC(=O)CC)c2c(OC)ccc(OC)c2c1 | > 100 µM |  | > 100 µM |  | > 100 µM | > 100 µM | 99 µM | > 100 µM |  |  |  |  |  |  |  |  |  |  |  |  |
| CC(CN)[C@@H]1CC[C@]2(CO)CC[C@]3(C)[C@H](CC[C@@H]4[C@@]5(C)CCC(N)C(C)(C)[C@@H]5CC[C@]43C)[C@@H]12 (stereo not given in full) | 3.66 µM | 3.55 µM |  | 3.36 µM | 4.58 µM | 3.6 µM | 2.82 µM | 3.1 µM | 3.33 µM | 1.89 µM | 1.84 µM |  | 1.66 µM | 1.92 µM | 1.93 µM | 1.41 µM | 1.69 µM | 2.06 µM |  |  |
| CC(C)c1cccc(C(C)C)c1NC(=O)CCC(=O)NN | > 100 µM | > 100 µM | > 100 µM | > 100 µM | > 100 µM |  | > 100 µM | > 100 µM |  |  |  |  |  |  |  |  |  |  |  |  |
| Cc1c(CC/C(=N\Nc2ccc([N+](=O)[O-])cc2[N+](=O)[O-])c2ccccc2)c2ccccc2n1C | > 100 µM | > 100 µM | > 31.6 µM | > 100 µM | > 100 µM | > 100 µM | > 100 µM | > 100 µM | > 100 µM |  |  |  |  |  |  |  |  |  |  |  |
| O=C(Cc1ccccc1)NS(=O)(=O)c1ccccc1 | > 100 µM | > 100 µM | > 100 µM | > 100 µM | > 100 µM | > 100 µM | > 100 µM | > 100 µM | > 100 µM |  |  |  |  |  |  |  |  |  |  |  |
| CC1=CC(=O)c2ccc(C)cc2C1=O | 34.7 µM | 32 µM | > 100 µM | 26.8 µM | 6.36 µM | 44.3 µM |  | 34 µM | 17.5 µM |  |  |  |  |  |  |  |  |  |  | > 100 µM |
| c1ccc2c(c1)[nH]c1c2ncc2[nH]c3ccccc3c21 | 7.07 µM | 19.4 µM | 8.3 µM | 17.2 µM | 6.27 µM | 33.7 µM | 12.1 µM | 20.1 µM |  |  |  |  |  |  |  |  |  |  |  |  |
| COC(C)(C)[C@H](O)C(O)CC(C)[C@@H]1CCC23CC12CCC1[C@@]2(C)CCC(OC(C)=O)C(C)(C)C2CC(OC2OC(COC(C)=O)C(O)C(O)C2O)[C@]13C (stereo not given in full) | 4.94 µM | 17.2 µM and 23.9 µM | 10.6 µM and 21.4 µM | 14 µM and 20.7 µM | 6.54 µM and 17.1 µM | 17.6 µM and 14.8 µM | 11.3 µM and 17.1 µM | 14.9 µM and 23.4 µM | 9.97 µM and 15.9 µM |  |  | 4.68 µM | 4.04 µM | 6.13 µM | 4.34 µM | 4.32 µM | 10.7 µM | 3.77 µM |  |  |
